Results from PubChem BioAssay (NCI).
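Briefly, cells in 96-well plates were exposed to five compound concentrations for 48 h, and endpoints were estimated by linear interpolation. The concentration for 50% growth inhibition is given as GI50. TGI marks complete inhibition of growth.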

Tests used:
Test in all cases: NCI-60 cell line screen, 48 h
786-0 renal = system: 786-0 renal
A498 renal = system: A498 renal
A549 NSCLC = system: A549 NSCLC
ACHN renal = system: ACHN renal
BT-549 breast = system: BT-549 breast
CAKI-1 renal = system: CAKI-1 renal
CCRF-CEM leukemia = system: CCRF-CEM leukemia
COLO 205 colon = system: COLO 205 colon
DU-145 prostate = system: DU-145 prostate
HCC-2998 colon = system: HCC-2998 colon
HCT-116 colon = system: HCT-116 colon
HCT-15 colon = system: HCT-15 colon
HL-60(TB) leukemia = system: HL-60(TB) leukemia
HOP-62 NSCLC = system: HOP-62 NSCLC
HOP-92 NSCLC = system: HOP-92 NSCLC
HS 578T breast = system: HS 578T breast
HT29 colon = system: HT29 colon
K-562 leukemia = system: K-562 leukemia
KM12 colon = system: KM12 colon
LOX IMVI melanoma = system: LOX IMVI melanoma
M14 melanoma = system: M14 melanoma
MALME-3M melanoma = system: MALME-3M melanoma
MCF7 breast = system: MCF7 breast
MDA-MB-231 breast = system: MDA-MB-231 breast
MDA-MB-435 = system: MDA-MB-435
MOLT-4 leukemia = system: MOLT-4 leukemia
NCI-H226 lung = system: NCI-H226 lung
NCI-H23 lung = system: NCI-H23 lung
NCI-H460 lung = system: NCI-H460 lung
NCI-H522 lung = system: NCI-H522 lung
NCI/ADR-RES ovarian = system: NCI/ADR-RES ovarian
OVCAR-4 ovarian = system: OVCAR-4 ovarian
OVCAR-5 ovarian = system: OVCAR-5 ovarian
PC-3 prostate = system: PC-3 prostate
RPMI-8226 leukemia = system: RPMI-8226 leukemia
RXF 393 renal = system: RXF 393 renal
SF-268 CNS = system: SF-268 CNS
SF-295 CNS = system: SF-295 CNS
SF-539 CNS = system: SF-539 CNS
SK-MEL-2 melanoma = system: SK-MEL-2 melanoma
SK-MEL-28 melanoma = system: SK-MEL-28 melanoma
SK-MEL-5 melanoma = system: SK-MEL-5 melanoma
SK-OV-3 ovarian = system: SK-OV-3 ovarian
SN12C renal = system: SN12C renal
SNB-19 CNS = system: SNB-19 CNS
SNB-75 CNS = system: SNB-75 CNS
SR leukemia = system: SR leukemia
SW-620 colon = system: SW-620 colon
T-47D breast = system: T-47D breast
U251 CNS = system: U251 CNS
UACC-257 melanoma = system: UACC-257 melanoma
UACC-62 melanoma = system: UACC-62 melanoma
UO-31 renal = system: UO-31 renal

With `COc1ccc2c(c1)c(CC(=O)[Se]CCC#N)c(C)n2C(=O)c1ccc(Cl)cc1` as the compound, how does the GI50 (786-0 renal) read?
Its GI50 is 1.92 µM.

What about the TGI (786-0 renal) of the same compound?
The TGI was 3.47 µM.

What about the GI50 (A498 renal) of the same compound?
The GI50 was 1.6 µM.

What about the TGI (A498 renal) of the same compound?
The TGI was 3.08 µM.

What about the GI50 (A549 NSCLC) of the same compound?
Its GI50 is 1.87 µM.

And the TGI (A549 NSCLC)?
The TGI was 3.86 µM.

What about the GI50 (ACHN renal) of the same compound?
The GI50 was 2.93 µM.

And the TGI (ACHN renal)?
The TGI was 7.79 µM.

What about the GI50 (BT-549 breast) of the same compound?
Its GI50 is 1.71 µM.

What about the TGI (BT-549 breast) of the same compound?
The TGI was 3.35 µM.

And the GI50 (CAKI-1 renal)?
The GI50 was 1.93 µM.

What about the TGI (CAKI-1 renal) of the same compound?
The TGI was 3.5 µM.

And the GI50 (CCRF-CEM leukemia)?
Its GI50 is 2.43 µM.

What about the TGI (CCRF-CEM leukemia) of the same compound?
Its TGI is greater than 100 µM.

What about the GI50 (COLO 205 colon) of the same compound?
Its GI50 is 2.26 µM.

What about the TGI (COLO 205 colon) of the same compound?
The TGI was 4.67 µM.

And the GI50 (DU-145 prostate)?
The GI50 was 2.26 µM.

And the TGI (DU-145 prostate)?
Its TGI is 5.93 µM.

And the GI50 (HCC-2998 colon)?
The GI50 was 3.61 µM.

And the TGI (HCC-2998 colon)?
Its TGI is 12.8 µM.

What about the GI50 (HCT-116 colon) of the same compound?
Its GI50 is 1.74 µM.

And the TGI (HCT-116 colon)?
The TGI was 3.34 µM.

And the GI50 (HCT-15 colon)?
Its GI50 is 2.17 µM.

What about the TGI (HCT-15 colon) of the same compound?
Its TGI is 5.27 µM.

And the GI50 (HL-60(TB) leukemia)?
Its GI50 is 1.2 µM.

What about the TGI (HL-60(TB) leukemia) of the same compound?
Its TGI is 6.25 µM.

And the GI50 (HOP-62 NSCLC)?
Its GI50 is 1.77 µM.

What about the TGI (HOP-62 NSCLC) of the same compound?
The TGI was 3.46 µM.

And the GI50 (HOP-92 NSCLC)?
The GI50 was 1.5 µM.

And the TGI (HOP-92 NSCLC)?
The TGI was 3.11 µM.

What about the GI50 (HS 578T breast) of the same compound?
The GI50 was 2.35 µM.

What about the TGI (HS 578T breast) of the same compound?
The TGI was 8.79 µM.

What about the GI50 (HT29 colon) of the same compound?
Its GI50 is 2.45 µM.

What about the TGI (HT29 colon) of the same compound?
Its TGI is 7.39 µM.

And the GI50 (K-562 leukemia)?
The GI50 was 3.24 µM.

And the TGI (K-562 leukemia)?
Its TGI is greater than 100 µM.

What about the GI50 (KM12 colon) of the same compound?
The GI50 was 4.13 µM.

And the TGI (KM12 colon)?
The TGI was 31 µM.

What about the GI50 (LOX IMVI melanoma) of the same compound?
The GI50 was 1.54 µM.

What about the TGI (LOX IMVI melanoma) of the same compound?
Its TGI is 3.96 µM.

What about the GI50 (M14 melanoma) of the same compound?
The GI50 was 1.39 µM.

And the TGI (M14 melanoma)?
Its TGI is 3.04 µM.

What about the GI50 (MALME-3M melanoma) of the same compound?
The GI50 was 1.7 µM.

What about the TGI (MALME-3M melanoma) of the same compound?
The TGI was 4.36 µM.

What about the GI50 (MCF7 breast) of the same compound?
The GI50 was 2.56 µM.

What about the TGI (MCF7 breast) of the same compound?
The TGI was 9.7 µM.

And the GI50 (MDA-MB-231 breast)?
The GI50 was 2.04 µM.

And the TGI (MDA-MB-231 breast)?
Its TGI is 4.97 µM.

What about the GI50 (MDA-MB-435) of the same compound?
The GI50 was 1.75 µM.

What about the TGI (MDA-MB-435) of the same compound?
The TGI was 3.47 µM.

What about the GI50 (MOLT-4 leukemia) of the same compound?
Its GI50 is 2.9 µM.

And the TGI (MOLT-4 leukemia)?
The TGI was greater than 100 µM.

And the GI50 (NCI-H226 lung)?
Its GI50 is 1.55 µM.

What about the TGI (NCI-H226 lung) of the same compound?
The TGI was 4.01 µM.

What about the GI50 (NCI-H23 lung) of the same compound?
Its GI50 is 2.28 µM.

And the TGI (NCI-H23 lung)?
Its TGI is 5.86 µM.

What about the GI50 (NCI-H460 lung) of the same compound?
The GI50 was 2.37 µM.

What about the TGI (NCI-H460 lung) of the same compound?
Its TGI is 8.38 µM.

What about the GI50 (NCI-H522 lung) of the same compound?
The GI50 was 1.84 µM.

What about the TGI (NCI-H522 lung) of the same compound?
Its TGI is 3.54 µM.

What about the GI50 (NCI/ADR-RES ovarian) of the same compound?
Its GI50 is 2.18 µM.

And the TGI (NCI/ADR-RES ovarian)?
Its TGI is 6.31 µM.

And the GI50 (OVCAR-4 ovarian)?
The GI50 was 2.38 µM.

What about the TGI (OVCAR-4 ovarian) of the same compound?
Its TGI is 6.94 µM.

And the GI50 (OVCAR-5 ovarian)?
The GI50 was 2.8 µM.

What about the TGI (OVCAR-5 ovarian) of the same compound?
The TGI was 8.87 µM.

What about the GI50 (PC-3 prostate) of the same compound?
The GI50 was 2.54 µM.

What about the TGI (PC-3 prostate) of the same compound?
The TGI was 7.35 µM.

And the GI50 (RPMI-8226 leukemia)?
Its GI50 is 2.51 µM.

What about the TGI (RPMI-8226 leukemia) of the same compound?
The TGI was 6.99 µM.

And the GI50 (RXF 393 renal)?
The GI50 was 1.52 µM.

What about the TGI (RXF 393 renal) of the same compound?
Its TGI is 3.17 µM.

And the GI50 (SF-268 CNS)?
The GI50 was 2.31 µM.

What about the TGI (SF-268 CNS) of the same compound?
The TGI was 5.07 µM.

What about the GI50 (SF-295 CNS) of the same compound?
The GI50 was 1.8 µM.

What about the TGI (SF-295 CNS) of the same compound?
The TGI was 3.3 µM.

And the GI50 (SF-539 CNS)?
Its GI50 is 2.02 µM.

What about the TGI (SF-539 CNS) of the same compound?
The TGI was 4.36 µM.

What about the GI50 (SK-MEL-2 melanoma) of the same compound?
The GI50 was 2.39 µM.

What about the TGI (SK-MEL-2 melanoma) of the same compound?
Its TGI is 5.43 µM.

And the GI50 (SK-MEL-28 melanoma)?
The GI50 was 2.19 µM.

And the TGI (SK-MEL-28 melanoma)?
Its TGI is 5.66 µM.

What about the GI50 (SK-MEL-5 melanoma) of the same compound?
The GI50 was 2.05 µM.

And the TGI (SK-MEL-5 melanoma)?
Its TGI is 4.18 µM.

What about the GI50 (SK-OV-3 ovarian) of the same compound?
The GI50 was 3.62 µM.

What about the TGI (SK-OV-3 ovarian) of the same compound?
Its TGI is 6.33 µM.

What about the GI50 (SN12C renal) of the same compound?
Its GI50 is 2.49 µM.

What about the TGI (SN12C renal) of the same compound?
Its TGI is 6.67 µM.

What about the GI50 (SNB-19 CNS) of the same compound?
The GI50 was 1.89 µM.

And the TGI (SNB-19 CNS)?
The TGI was 3.58 µM.

And the GI50 (SNB-75 CNS)?
Its GI50 is 1.5 µM.

What about the TGI (SNB-75 CNS) of the same compound?
Its TGI is 3.72 µM.

And the GI50 (SR leukemia)?
Its GI50 is 3.78 µM.

And the TGI (SR leukemia)?
The TGI was greater than 100 µM.

And the GI50 (SW-620 colon)?
The GI50 was 3.41 µM.

And the TGI (SW-620 colon)?
Its TGI is 10.4 µM.

What about the GI50 (T-47D breast) of the same compound?
Its GI50 is 9.78 µM.

What about the TGI (T-47D breast) of the same compound?
Its TGI is 38.8 µM.

And the GI50 (U251 CNS)?
Its GI50 is 1.66 µM.

What about the TGI (U251 CNS) of the same compound?
The TGI was 3.11 µM.

And the GI50 (UACC-257 melanoma)?
Its GI50 is 1.6 µM.

And the TGI (UACC-257 melanoma)?
Its TGI is 3.46 µM.

And the GI50 (UACC-62 melanoma)?
The GI50 was 1.94 µM.

And the TGI (UACC-62 melanoma)?
Its TGI is 4.7 µM.

And the GI50 (UO-31 renal)?
The GI50 was 1.73 µM.

And the TGI (UO-31 renal)?
Its TGI is 4.2 µM.
